Measurements: US20250296929A1, “NOVEL HEPATOSELECTIVE POLYADENYLATING POLYMERASES INHIBITORS AND THEIR METHOD OF USE” (BARUCH S. BLUMBERG INSTITUTE, priority 2021, published 2025)
Where “and” joins values, the source holds several entries; their conditions need not be identical. Identical values can stand only once. Like-named read-outs stand apart in the source and are kept apart here.

Assays:
OATP1B1 = molecular target: T1, OATP1B1 (Homo sapiens, UniProt Q9Y6L6); assay: OATP1B1 transporter substrate uptake in OATP1B1-HEK293 cells; assay type: in vitro ADME; conditions: test concentration 1 μM
T1 construct: expressed in transfected cells; host or cells: HEK293
T1 sequence (Q9Y6L6 1-691): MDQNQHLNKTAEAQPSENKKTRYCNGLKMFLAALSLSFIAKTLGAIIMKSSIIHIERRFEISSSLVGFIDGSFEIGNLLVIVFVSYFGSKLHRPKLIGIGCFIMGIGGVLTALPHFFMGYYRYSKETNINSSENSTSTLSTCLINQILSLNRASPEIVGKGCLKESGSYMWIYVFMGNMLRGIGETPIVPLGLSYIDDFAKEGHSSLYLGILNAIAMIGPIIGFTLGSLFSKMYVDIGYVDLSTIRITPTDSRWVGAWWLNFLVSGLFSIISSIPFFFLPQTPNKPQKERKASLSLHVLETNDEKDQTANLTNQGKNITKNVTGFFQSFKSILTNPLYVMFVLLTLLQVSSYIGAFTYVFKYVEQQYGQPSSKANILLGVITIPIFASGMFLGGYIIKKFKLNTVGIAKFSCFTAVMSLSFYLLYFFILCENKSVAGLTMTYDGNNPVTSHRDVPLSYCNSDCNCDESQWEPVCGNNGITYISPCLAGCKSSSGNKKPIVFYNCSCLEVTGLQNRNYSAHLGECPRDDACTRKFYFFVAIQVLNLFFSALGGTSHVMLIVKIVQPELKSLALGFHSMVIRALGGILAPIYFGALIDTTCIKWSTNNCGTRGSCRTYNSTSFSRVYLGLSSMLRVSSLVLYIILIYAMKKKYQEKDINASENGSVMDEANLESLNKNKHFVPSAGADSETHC

[1] = Pharmacokinetics after 3 mg/kg IV administration, plasma; assay type: in vivo, CD1 mice
Protocol: Protocol for pharmacokinetic and tissue distribution studies. The pharmacokinetics of the compounds was studied in CD1 mice after intravenous (IV) and oral gavage (PO) administration. Mouse PK studies was conducted at 3 mg/kg (IV) and 8 mg/kg (PO). Plasma samples obtained from dosed animals, at ten time points, including 5, 15 and 30 minutes and 1, 1.5, 2, 4, 6, 8 and 24 hr post-dose for processing to plasma, were prepared for analysis by means of a single step protein precipitation technique, by adding 200 μL of acetonitrile containing an IS mixture (labetalol, imipramine and diclofenac) to 50 μL aliquots of individual subject samples. Samples were mixed by vortex for homogeneity and then subjected to centrifugation at 4000 rpm for 10 min. The supernatant (200 μL) was collected and injected into the LC-MS/MS for analysis. Pharmacokinetic parameters will be calculated using established non-compartmental methods. The liver distribution of the compounds was studied in the PO group and liver tissues were collected at each time point after PO administration. Accurately weighed whole liver tissues were collected in a 50 mL tube, and 3 volumes per weight of water will be added. Tissue samples were homogenized and 50 μL of the homogenates will be processed along with plasma samples as described above.

[2] = CD1, mouse, plasma, iv, 3 mg/kg, individual mice
[3] = CD1, mouse, plasma, iv, 3 mg/kg, mean

Structure (SMILES): COc1cc2c(cc1OCCCCCCC(=O)O)C[C@@H](C(C)C)n1cc(C(=O)O)c(=O)cc1-2 [Example 6, (S)-9-((6-carboxyhexyl)oxy)-6-isopropyl-10-methoxy-2-oxo-6,7-dihydro-2H-pyrido[2,1-a]isoquinoline-3-carboxylic acid]
- Uptake Ratio (−/+Inhibitor) (OATP1B1; OATP1B1-HEK293 cells, inhibitor Rifamycin SV): 11.17
- Uptake Ratio (Transporter(−Inhibitor)/Mock(−Inhibitor)) (OATP1B1; OATP1B1-HEK293 vs Mock (normal HEK293)): 18.99
- Plasma concentration ([1]; 5 min, individual mice): 979 ng/mL and 689 ng/mL
- Plasma concentration ([1]; 0.25 h, individual mice): 103 ng/mL and 73.0 ng/mL
- Plasma concentration ([1]; 0.5 h, individual mice): 31.7 ng/mL and 24.9 ng/mL
- Plasma concentration ([1]; 1 h, individual mice): 8.52 ng/mL and 6.79 ng/mL
- Plasma concentration ([1]; 2 h, individual mice): 5.61 ng/mL and 5.51 ng/mL and 2.14 ng/mL
- Plasma concentration ([1]; 4 h, individual mice): 1.69 ng/mL and BLOQ
- Plasma concentration ([1]; 8 h, individual mice): BLOQ
- Plasma concentration ([1]; 24 h, individual mice): BLOQ
- concentration at 5 min ([1]; CD1, mouse, plasma, intravenous, 3 mg/kg, 5 min, individual mice, read-out: Plasma concentration): 817 ng/mL
- concentration at 5 min ([1]; CD1, mouse, plasma, intravenous, 3 mg/kg, 5 min, mean, read-out: Mean plasma concentration): 828 ng/mL
- concentration at 0.25 h ([1]; CD1, mouse, plasma, intravenous, 3 mg/kg, 0.25 h, individual mice, read-out: Plasma concentration): 82.3 ng/mL
- concentration at 0.25 h ([1]; CD1, mouse, plasma, intravenous, 3 mg/kg, 0.25 h, mean, read-out: Mean plasma concentration): 86 ng/mL
- concentration at 0.5 h ([1]; CD1, mouse, plasma, intravenous, 3 mg/kg, 0.5 h, individual mice, read-out: Plasma concentration): 32.8 ng/mL
- concentration at 0.5 h ([1]; CD1, mouse, plasma, intravenous, 3 mg/kg, 0.5 h, mean, read-out: Mean plasma concentration): 29.8 ng/mL
- concentration at 1 h ([1]; CD1, mouse, plasma, intravenous, 3 mg/kg, 1 h, individual mice, read-out: Plasma concentration): 11.4 ng/mL
- concentration at 1 h ([1]; CD1, mouse, plasma, intravenous, 3 mg/kg, 1 h, mean, read-out: Mean plasma concentration): 8.9 ng/mL
- concentration at 2 h ([1]; CD1, mouse, plasma, intravenous, 3 mg/kg, 2 h, mean): 4.42 ng/mL
- concentration at 4 h ([1]; CD1, mouse, plasma, intravenous, 3 mg/kg, 4 h, individual mice, read-out: Plasma concentration): 1.85 ng/mL
- concentration at 4 h ([1]; CD1, mouse, plasma, intravenous, 3 mg/kg, 4 h, mean, read-out: Mean plasma concentration): 1.77 ng/mL
- concentration at 8 h ([1]; CD1, mouse, plasma, intravenous, 3 mg/kg, 8 h, individual mice): 1.08 ng/mL
- AUC(0-inf) [1, 2]: 268 ng·h/mL
- AUC(0-t) [1, 2]: 263 ng·h/mL
- C0 ([1]; CD1, mouse, plasma, iv, 3 mg/kg, individual mice, read-out: C0): 2570 ng/mL
- AUC(0-inf) [1, 3]: 258 ng·h/mL
- AUC(0-t) [1, 3]: 255 ng·h/mL
- half-life [1, 3]: 88.8 min
- C0 ([1]; CD1, mouse, plasma, iv, 3 mg/kg, mean, read-out: C0): 2570 ng/mL
- MRT inf ([1]; CD1, mouse, plasma, iv, 3 mg/kg, mean, read-out: MRTInf —obs): 17.2 min
- Vd ([1]; CD1, mouse, plasma, iv, 3 mg/kg, mean, read-out: Vss —obs): 3.26 L/kg
- AUCInf ([1]; individual mice): 301 ng·h/mL and 206 ng·h/mL
- AUClast ([1]; individual mice): 298 ng·h/mL and 205 ng·h/mL
- AUC—% Extrap_obs ([1]; individual mice): 1.59% and 1.03% and 0.662%
- C0 ([1]; individual mice): 3016 ng/mL and 2115 ng/mL
- Cl_obs ([1]; individual mice): 187 mL/min/kg and 166 mL/min/kg and 242 mL/min/kg
- MRTInf —obs ([1]; individual mice): 30.1 min and 13.8 min and 7.68 min
- T1/2 ([1]; individual mice): 163 min and 76.2 min and 26.5 min
- Vss —obs ([1]; individual mice): 5.63 L/kg and 2.29 L/kg and 1.87 L/kg
- AUClast/D ([1]; mean): 85.1 kg·ng·h/mL/mg
- AUC—% Extrap_obs ([1]; mean): 1.09%
- Cl_obs ([1]; mean): 198 mL/min/kg
